# The source made the active and inactive calls.
# Key:
# [1] = Luminescence Cell-Based Dose Confirmation HTS to Identify Inhibitors of Polyadenylation.; assay type: functional
# [2] = test system: HEK293; test: inhibitors of LMP1-driven NF-kB reporter, dose response, cell-based, HEK293, luciferase, cherry-pick (AID 588343); assay type: functional; conditions: Homo sapiens
# [3] = biological target: T1, Rac GTPase-activating protein 1 (Homo sapiens, UniProt Q9H0H5); test: MgcRacGAP GTPase-activating activity inhibitors, confirmation, biochemical, ADP Hunter fluorescence, primary and confirmatory (AID 624330); assay type: functional
# T1 sequence (Q9H0H5 whole entry): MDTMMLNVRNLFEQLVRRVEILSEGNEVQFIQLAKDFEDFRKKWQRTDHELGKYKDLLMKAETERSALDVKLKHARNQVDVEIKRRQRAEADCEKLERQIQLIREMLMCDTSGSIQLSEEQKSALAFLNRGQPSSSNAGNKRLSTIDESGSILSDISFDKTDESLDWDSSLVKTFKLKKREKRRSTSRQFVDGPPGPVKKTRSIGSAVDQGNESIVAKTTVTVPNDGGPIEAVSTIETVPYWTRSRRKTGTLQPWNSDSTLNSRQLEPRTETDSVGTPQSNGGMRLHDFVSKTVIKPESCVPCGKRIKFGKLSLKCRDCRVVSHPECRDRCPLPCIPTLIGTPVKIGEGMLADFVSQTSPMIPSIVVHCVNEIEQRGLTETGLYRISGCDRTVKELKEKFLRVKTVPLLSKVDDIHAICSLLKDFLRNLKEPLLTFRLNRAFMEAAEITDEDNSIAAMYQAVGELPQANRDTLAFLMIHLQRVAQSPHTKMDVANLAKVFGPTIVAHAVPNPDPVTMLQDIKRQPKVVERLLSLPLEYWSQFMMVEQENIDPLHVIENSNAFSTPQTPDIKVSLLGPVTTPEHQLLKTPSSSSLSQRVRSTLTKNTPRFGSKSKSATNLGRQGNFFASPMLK
# [4] = polyadenylation inhibitors in yeast reporter, dose response, luminescence, S. cerevisiae SKY197-pL101 (AID 2525); assay type: functional, cell-based
# [5] = biological target: T2, Hexokinase HKDC1 (Homo sapiens, UniProt Q2TB90); test: HKDC1 hexokinase inhibitors, dose response, biochemical, W721R variant (AID 504729); assay type: functional
# T2 sequence (Q2TB90 whole entry): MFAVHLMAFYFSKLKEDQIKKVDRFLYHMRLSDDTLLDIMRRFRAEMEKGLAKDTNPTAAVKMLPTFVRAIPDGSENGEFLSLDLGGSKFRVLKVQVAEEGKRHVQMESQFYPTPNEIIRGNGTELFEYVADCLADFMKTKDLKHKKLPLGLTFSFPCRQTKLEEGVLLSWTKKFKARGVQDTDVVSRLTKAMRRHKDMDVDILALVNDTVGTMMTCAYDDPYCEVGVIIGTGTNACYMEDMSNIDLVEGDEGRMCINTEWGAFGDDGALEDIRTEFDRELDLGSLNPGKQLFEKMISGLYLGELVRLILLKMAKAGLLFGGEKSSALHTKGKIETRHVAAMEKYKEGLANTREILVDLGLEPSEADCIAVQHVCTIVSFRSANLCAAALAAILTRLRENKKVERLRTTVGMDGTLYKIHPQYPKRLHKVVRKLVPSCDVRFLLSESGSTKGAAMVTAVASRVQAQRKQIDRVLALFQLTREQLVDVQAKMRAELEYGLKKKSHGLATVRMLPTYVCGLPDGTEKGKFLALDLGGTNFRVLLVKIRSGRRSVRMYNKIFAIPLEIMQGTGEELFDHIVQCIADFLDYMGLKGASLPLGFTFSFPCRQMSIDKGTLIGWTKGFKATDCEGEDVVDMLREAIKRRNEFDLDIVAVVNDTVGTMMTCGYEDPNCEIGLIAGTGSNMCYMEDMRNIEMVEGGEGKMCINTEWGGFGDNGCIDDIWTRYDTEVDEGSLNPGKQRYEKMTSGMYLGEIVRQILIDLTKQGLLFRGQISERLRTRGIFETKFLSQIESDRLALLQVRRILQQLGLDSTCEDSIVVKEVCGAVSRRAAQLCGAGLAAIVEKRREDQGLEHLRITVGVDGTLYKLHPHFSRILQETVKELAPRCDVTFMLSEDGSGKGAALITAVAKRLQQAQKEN
# [6] = test system: INS1; test: beta cell apoptosis inhibitors, cytokine rescue, dose response, luminescence, retest (AID 449756); assay type: functional, cell-based; conditions: Rattus norvegicus;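 also: cell death triggered by IL-1 beta plus TNF-alpha plus IFN-gamma mixture; protective hits raise ATP signal compared with cytokine alone wells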
# [7] = biological target: T3, RNA-binding protein pos-1 (Caenorhabditis elegans, UniProt G5EF15); test: inhibitors of POS-1/mex-3 RNA binding, dose response, biochemical, fluorescence polarization (AID 1964);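 also: purified POS-1 fused to maltose binding protein made in E. coli; potency of compounds blocking POS-1 binding to fluorescent RNA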
# T3 sequence (G5EF15 whole entry): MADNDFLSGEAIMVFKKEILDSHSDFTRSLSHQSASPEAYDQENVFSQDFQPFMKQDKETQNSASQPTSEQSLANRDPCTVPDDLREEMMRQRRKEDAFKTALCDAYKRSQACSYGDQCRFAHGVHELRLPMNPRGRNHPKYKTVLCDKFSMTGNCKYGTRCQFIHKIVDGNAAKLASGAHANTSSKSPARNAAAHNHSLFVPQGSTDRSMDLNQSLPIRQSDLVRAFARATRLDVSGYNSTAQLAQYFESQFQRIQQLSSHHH
# [8] = biological target: Protein Rev (Human immunodeficiency virus type 1 group M subtype B (isolate HXB2)(HIV-1), UniProt P04618); test: inhibitors of Rev binding to RRE RNA, dose response, biochemical, fluorescence polarization, HIV-1 (AID 434976); design: species or system Human immunodeficiency virus 1
# [9] = biological target: T4, Zinc finger protein mex-5 (Caenorhabditis elegans, UniProt Q9XUB2); test: MEX-5/TCR-2 RNA interaction inhibitors, dose response, biochemical, C. elegans, fluorescence polarization (AID 1960)
# T4 sequence (Q9XUB2 whole entry): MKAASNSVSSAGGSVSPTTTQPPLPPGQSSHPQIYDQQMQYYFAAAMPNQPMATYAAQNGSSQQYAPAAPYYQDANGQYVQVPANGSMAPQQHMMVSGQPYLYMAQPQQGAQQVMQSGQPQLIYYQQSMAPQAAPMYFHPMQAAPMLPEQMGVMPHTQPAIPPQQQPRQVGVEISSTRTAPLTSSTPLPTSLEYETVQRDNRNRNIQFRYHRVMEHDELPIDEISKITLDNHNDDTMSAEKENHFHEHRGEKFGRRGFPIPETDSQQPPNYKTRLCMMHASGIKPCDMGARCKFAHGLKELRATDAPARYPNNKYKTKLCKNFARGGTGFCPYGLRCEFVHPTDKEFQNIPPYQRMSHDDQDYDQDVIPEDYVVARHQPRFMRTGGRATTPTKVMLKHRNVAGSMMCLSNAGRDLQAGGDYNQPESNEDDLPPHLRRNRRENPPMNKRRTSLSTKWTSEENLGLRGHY
# [10] = biological target: Female germline-specific tumor suppressor gld-1 (Caenorhabditis elegans, UniProt Q17339); test: inhibitors of GLD-1 binding to TGE RNA, dose response, biochemical, fluorescence polarization, C. elegans (AID 2802);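 also: fluorescence polarization of labeled TGE RNA bound by purified gld-1 protein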
# Chain of Female germline-specific tumor suppressor gld-1 (Q17339 whole entry): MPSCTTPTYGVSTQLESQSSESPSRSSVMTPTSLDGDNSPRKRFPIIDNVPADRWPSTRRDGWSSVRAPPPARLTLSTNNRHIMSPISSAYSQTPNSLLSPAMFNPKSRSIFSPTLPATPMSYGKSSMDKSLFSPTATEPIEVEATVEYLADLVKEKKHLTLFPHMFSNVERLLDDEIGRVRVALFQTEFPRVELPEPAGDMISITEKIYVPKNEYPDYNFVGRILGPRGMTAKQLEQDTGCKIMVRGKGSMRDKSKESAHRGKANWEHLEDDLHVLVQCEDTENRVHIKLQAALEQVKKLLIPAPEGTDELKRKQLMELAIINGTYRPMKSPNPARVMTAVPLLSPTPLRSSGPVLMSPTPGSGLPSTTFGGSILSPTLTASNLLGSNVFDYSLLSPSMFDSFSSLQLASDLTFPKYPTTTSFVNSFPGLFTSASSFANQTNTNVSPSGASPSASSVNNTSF
# Chain of Protein Rev (P04618 whole entry): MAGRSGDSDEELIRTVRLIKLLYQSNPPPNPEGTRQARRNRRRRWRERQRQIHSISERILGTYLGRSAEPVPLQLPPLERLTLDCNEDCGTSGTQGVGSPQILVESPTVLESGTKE
SMILES,EC50 [1],AC50 [2],IC50 [3],EC50 [4],IC50 [5],AC50 [6],EC50 [7],IC50 [8],EC50 [9],IC50 [10]
COc1cc(/C=C2\SC(=S)N(NC(=O)c3ccncc3)C2=O)ccc1O,7.59 µM (active),222 µM (active),48.1 µM (active),8.56 µM (active),–,–,–,–,–,–
COc1cc2c(cc1OC)-c1c(OC)c(OC)c(OC)c3ccnc(c13)C2=O [OXOPURPUREINE],–,–,–,–,12.1 µM (active),3.34 µM (active),28.6 µM (inconclusive),> 75.4 µM (not active),4.83 µM (active),6.15 µM (active)
